Assay results as given in patent publication EP1731520A1, “Pyrrolo[2,3-d]pyrimidine derivatives which are antagonists of adenosine A1, A2A, and A3” (OSI Pharmaceuticals, Inc., priority 1999, dated 2001).
Read-outs that look alike come from different tables or passages of the source.

Key:
[1] = molecular target: human A2a receptor subtype (Homo sapiens, UniProt P29274); experiment: Adenosine 2a receptor subtype competition radioligand binding, [3H] CGS-21680, HEK293 membranes; conditions: for Ki-A2a (selectivity versus other three subtypes): Table 16, Adenosine A2a Receptor Selective Compounds
[2] = molecular target: human A1 receptor subtype (Homo sapiens, UniProt P30542)
[3] = molecular target: T1, human A2b receptor subtype (Homo sapiens, UniProt P29275); experiment: Adenosine 2b receptor subtype competition radioligand binding, [3H] DPCPX, HEK293 membranes
T1 sequence (P29275 1-332): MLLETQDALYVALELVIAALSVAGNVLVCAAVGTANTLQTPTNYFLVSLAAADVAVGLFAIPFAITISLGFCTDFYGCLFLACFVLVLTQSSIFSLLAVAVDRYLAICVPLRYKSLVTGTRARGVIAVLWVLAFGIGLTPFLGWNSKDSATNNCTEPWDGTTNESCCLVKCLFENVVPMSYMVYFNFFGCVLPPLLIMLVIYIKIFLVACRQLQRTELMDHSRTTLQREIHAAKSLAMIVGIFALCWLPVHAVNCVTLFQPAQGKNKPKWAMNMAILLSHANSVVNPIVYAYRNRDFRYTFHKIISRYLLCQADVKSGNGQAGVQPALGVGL

[4] = molecular target: T2, human A3 receptor subtype (Homo sapiens, UniProt P0DMS8); experiment: Adenosine 3 receptor competition radioligand binding, [125I] AB-MECA, HEK293 membranes; conditions: for Ki-A3 (selectivity versus other three subtypes): Table 17, Adenosine A3 Receptor Selective Compounds
T2 sequence (P0DMS8 1-318): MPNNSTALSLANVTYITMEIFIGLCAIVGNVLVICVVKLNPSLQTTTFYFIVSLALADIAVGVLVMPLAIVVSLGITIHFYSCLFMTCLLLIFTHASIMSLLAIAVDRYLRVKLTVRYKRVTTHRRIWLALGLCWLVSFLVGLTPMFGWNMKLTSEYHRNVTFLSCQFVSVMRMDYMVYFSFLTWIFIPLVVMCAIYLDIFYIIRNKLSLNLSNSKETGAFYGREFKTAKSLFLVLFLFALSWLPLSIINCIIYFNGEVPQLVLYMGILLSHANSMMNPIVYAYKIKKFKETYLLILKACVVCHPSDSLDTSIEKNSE

human A3 receptor = molecular target: T3, human A3 receptor (Homo sapiens, UniProt P0DMS8); experiment: Displacement binding of [3H]CPX, yeast membranes expressing hA3R
T3 sequence (P0DMS8 1-318): T2 sequence (P0DMS8 1-318)

[5] = molecular target: human adenosine A1 receptor (Homo sapiens, UniProt P30542); experiment: Yeast β-Galactosidase reporter gene assay (strain CY12660): inhibition of NECA-induced β-Galactosidase activity; conditions: read-out: Al Yeast IC50
human A2a receptor = conditions: read-out: Reported Ki; agonist; cited from earlier work
[6] = system: human A1 adenosine receptor; conditions: synthetic agonist; cited from earlier work
[7] = read-out: Binding Ki (nM) A2a, Table 13
[8] = read-out: Binding Ki (nM) A2b, Table 13

Chain of human A2a receptor subtype (P29274 whole entry): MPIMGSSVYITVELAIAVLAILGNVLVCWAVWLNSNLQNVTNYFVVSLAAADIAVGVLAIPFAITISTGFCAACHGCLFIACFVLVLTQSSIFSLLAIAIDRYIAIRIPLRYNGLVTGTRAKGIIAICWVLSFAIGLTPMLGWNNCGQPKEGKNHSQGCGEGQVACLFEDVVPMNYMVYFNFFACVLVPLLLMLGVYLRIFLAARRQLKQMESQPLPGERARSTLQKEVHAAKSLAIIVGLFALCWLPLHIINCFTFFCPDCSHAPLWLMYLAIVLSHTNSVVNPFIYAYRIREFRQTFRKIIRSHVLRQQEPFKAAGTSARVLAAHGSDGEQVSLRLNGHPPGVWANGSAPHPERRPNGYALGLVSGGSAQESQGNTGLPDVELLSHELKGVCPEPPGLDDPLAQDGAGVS
Chain of human A1 receptor subtype (P30542 whole entry): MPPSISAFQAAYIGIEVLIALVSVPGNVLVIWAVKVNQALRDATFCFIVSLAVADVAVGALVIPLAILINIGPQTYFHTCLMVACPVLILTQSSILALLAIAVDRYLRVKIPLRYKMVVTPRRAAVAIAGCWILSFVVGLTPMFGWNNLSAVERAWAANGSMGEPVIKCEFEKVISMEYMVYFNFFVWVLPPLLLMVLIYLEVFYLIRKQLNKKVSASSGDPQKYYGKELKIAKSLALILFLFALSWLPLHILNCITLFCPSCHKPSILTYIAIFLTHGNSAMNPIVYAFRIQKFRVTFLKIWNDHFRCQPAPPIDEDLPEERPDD
Chain of human adenosine A1 receptor (P30542 whole entry): as above

OCC1CCCN(c2nc(-c3ccncc3)nc3[nH]ccc23)C1 (stereo not shown) [Compound 1607]
Ki-A2a (selectivity versus other three subtypes) [1]: * (at least 5 times more selective than other three subtypes.)

CC(=O)NCCNc1nc(-c2ccccc2)nc2[nH]c(C)c(C)c12 [Compound 1300]
Ki [1, 7]: 18 to 48.6 nM

CC(=O)NCCNc1nc(-c2ccncc2)nc2[nH]c(C)c(CN(C)Cc3ccccc3)c12 [Compound 1608]
Ki-A2a (selectivity versus other three subtypes) [1]: * (at least 5 times more selective than other three subtypes.)

NC(=O)[C@H]1CCCN1c1nc(-c2ccncc2)nc2[nH]ccc12 [Compound 1602]
Ki-A2a (selectivity versus other three subtypes) [1]: * (at least 5 times more selective than other three subtypes.)

Cc1[nH]c2nc(-c3ccccc3)nc(NCCNC(=O)C3(N)CC3)c2c1C [Compound 1313]
% activity @ 10 µM, A1 ([2]; Table 13, in %, 10 µM): 30%
% activity @ 10 µM, A2a ([1]; Table 13, in %, 10 µM): 65%

O[C@H]1CC[C@H](Nc2nc(-c3ccncc3)nc3[nH]ccc23)CC1 [Compound 1321, 4-(trans-4-hydroxycyclohexyl)amino-2-(4-pyridyl)-7H-pyrrolo[2,3d]pyrimidine]
Ki [3]: 1030 nM
Ki [1]: 131 nM
activity at 10 µM ([4]; read-out: % activity @ 10 µM, A3): 54%

Nc1nc2ccc(Cl)cc2c2nc(-c3ccco3)nn12 [CGS-15943]
IC50 (human A3 receptor): 55.5 nM

O[C@H]1CC[C@H](Nc2nc(-c3cccc(Cl)c3)nc3[nH]ccc23)CC1 [Compound 1320, 4-(trans-4-hydroxycyclohexyl)amino-2-(3-chlorophenyl)-7H-pyrrolo[2,3d] pyrimidine]
Ki [3]: 530 nM
Ki [1]: 531 nM
Ki [4]: 419 nM

CC(=O)NCCNc1nc(-c2ccccc2)nc2[nH]c(CNc3ccccc3)cc12 [Compound 1404]
Ki ([1]; read-out: Binding Data Ki (nM) A2a, Table 14): 31 nM

Cc1[nH]c2nc(-c3ccccc3)nc(NCCCNC(=O)CCN)c2c1C [Compound 1315]
Ki [3, 8]: 3.4 nM
Ki ([2]; read-out: Binding Ki (nM) A1, Table 13, Profile of Selective Adenosine Antagonists): 75 nM
Ki [1, 7]: 720 nM
Ki ([4]; read-out: Binding Ki (nM) A3, Table 13): 507 nM

Cc1[nH]c2nc(-c3ccccc3)nc(NCCCO)c2c1C [Compound 1015]
IC50 ([5]; Table 10, Effect of N6-Substituent): 3710 nM

OC[C@H]1CCCN1c1nc(-c2ccccc2)nc2[nH]ccc12 [Compound 1603]
Ki-A2a (selectivity versus other three subtypes) [1]: * (at least 5 times more selective than other three subtypes.)

CNC(=O)NCCCNc1nc(-c2ccccc2)nc2[nH]c(C)c(C)c12 [Compound 1310]
activity at 10 µM ([1]; read-out: % activity @ 10 µM, A2a): 76%

OC[C@H]1C[C@@H](O)CN1c1nc(-c2ccncc2)nc2[nH]ccc12 [Compound 1605]
Ki-A2a (selectivity versus other three subtypes) [1]: * (at least 5 times more selective than other three subtypes.)

OCC1CN(c2nc(-c3ccccc3)nc3[nH]ccc23)C1 [Compound 1711]
Ki-A3 (selectivity versus other three subtypes) [4]: * (at least 10 times more selective than other three subtypes.)

CC(=O)NC(CNc1nc(-c2ccccc2)nc2[nH]c(C)c(C)c12)C(C)C (stereo not shown) [Compound 1700]
Ki-A3 (selectivity versus other three subtypes) [4]: * (at least 10 times more selective than other three subtypes.)

Cc1[nH]c2nc(-c3ccccc3)nc(NCCCNC(=O)CN)c2c1C [Compound 1316]
Ki [3, 8]: 710 nM
Ki [1, 7]: 710 nM
Ki [4]: 97 nM
Ki-A3 (selectivity versus other three subtypes) [4]: * (at least 10 times more selective than other three subtypes.)

CCN(CC)C(=O)NCCNc1nc(-c2ccccc2)nc2[nH]c(C)c(C)c12 [Compound 1701]
Ki-A3 (selectivity versus other three subtypes) [4]: * (at least 10 times more selective than other three subtypes.)

CCNC(=O)NCCCNc1nc(-c2ccccc2)nc2[nH]c(C)c(C)c12 [Compound 1704]
Ki-A3 (selectivity versus other three subtypes) [4]: * (at least 10 times more selective than other three subtypes.)

Cc1[nH]c2nc(-c3ccccc3)nc(NC3CCC(OC(=O)CN)C3)c2c1C (stereo not shown) [Compound 1705]
Ki-A3 (selectivity versus other three subtypes) [4]: * (at least 10 times more selective than other three subtypes.)

OC[C@H]1CCCN1c1nc(-c2ccncc2)nc2[nH]ccc12 [Compound 1601]
Ki-A2a (selectivity versus other three subtypes) [1]: * (at least 5 times more selective than other three subtypes.)

CNC(=O)N1CCCCC1CNc1nc(-c2ccccc2)nc2[nH]c(COc3cccc(Cl)c3)cc12 (stereo not shown) [Compound 1715]
Ki-A3 (selectivity versus other three subtypes) [4]: * (at least 10 times more selective than other three subtypes.)

Clc1cccc(OCc2cc3c(NCCc4ccc[nH]4)nc(-c4ccccc4)nc3[nH]2)c1 [Compound 1712]
Ki-A3 (selectivity versus other three subtypes) [4]: * (at least 10 times more selective than other three subtypes.)

NC(=O)[C@H]1CCCN1c1nc(-c2cccc(F)c2)nc2[nH]ccc12 [Compound 1600]
Ki-A2a (selectivity versus other three subtypes) [1]: * (at least 5 times more selective than other three subtypes.)

OC1CCC(Nc2nc(-c3ccccc3)nc3[nH]ccc23)C1 (stereo not shown) [Compound 1706]
Ki-A3 (selectivity versus other three subtypes) [4]: * (at least 10 times more selective than other three subtypes.)

OC1CCN(c2nc(-c3ccccc3)nc3[nH]c(-c4ccccc4)cc23)C1 (stereo not shown) [Compound 1703]
Ki-A3 (selectivity versus other three subtypes) [4]: * (at least 10 times more selective than other three subtypes.)

CC(=O)NCCNc1nc(-c2ccccc2)nc2[nH]c(CN3CCC[C@H]3CNc3ccccc3)cc12 [Compound 1713]
Ki-A3 (selectivity versus other three subtypes) [4]: * (at least 10 times more selective than other three subtypes.)

O=C1NCCN1CCNc1nc(-c2ccccc2)nc2[nH]c(-c3ccccc3)cc12 [Compound 1708]
Ki-A3 (selectivity versus other three subtypes) [4]: * (at least 10 times more selective than other three subtypes.)

c1ccc(-c2nc(NCCc3cnc[nH]3)c3cc[nH]c3n2)cc1 [Compound 1720, [2-(3H-Imidazol-4-yl)-ethyl]-(2-phenyl-7H-pyrrolo[2,3-d]pyrimidin-4-yl)-amine]
A3 receptor binding affinity relative to reference compound 1308 ([4]; competition radio ligand binding): greater than 10 times

COC(=O)C(C)(C)NCc1cc2c(N3CCC[C@@H]3CO)nc(-c3ccccc3)nc2[nH]1 [Compound 1606]
Ki-A2a (selectivity versus other three subtypes) [1]: * (at least 5 times more selective than other three subtypes.)

CNC(=O)NCCCNc1nc(-c2ccc(Cl)cc2)nc2[nH]ccc12 [Compound 1719]
Ki-A3 (selectivity versus other three subtypes) [4]: * (at least 10 times more selective than other three subtypes.)

O[C@H]1CC[C@H](Nc2nc(-c3ccccc3)nc3[nH]ccc23)CC1 [Compound 1318]
Ki [3]: 2310 ± 926 nM
Ki [4]: 630 ± 76 nM

Cc1[nH]c2nc(-c3ccsc3)nc(N[C@H]3CC[C@H](O)CC3)c2c1C [Compound 704]
Ki ([2]; read-out: Al Binding Ki, Table 7, Effect of C2-Substituent): 61.1 nM
IC50 ([5]; Table 7, Effect of C2-Substituent): 297 nM

CC(Cc1ccccc1)Nc1ncnc2c1ncn2[C@@H]1O[C@H](CO)[C@@H](O)[C@H]1O (single isomer, unassigned; (-)) [PIA, (-)-N6-(2-phenylisopropyl)-adenosine]
reported affinity [6]: approximately 50 nM

c1ccc(-c2cc3c(N4CCNCC4)nc(-c4ccncc4)nc3[nH]2)cc1 [Compound 1604]
Ki-A2a (selectivity versus other three subtypes) [1]: * (at least 5 times more selective than other three subtypes.)

O[C@H]1CC[C@H](Nc2nc(-c3cccc(F)c3)nc3[nH]ccc23)CC1 [Compound 1319, 4-(trans-4-hydroxycyclohexyl)amino-2-(3-fluorophenyl)-7H-pyrrolo [2,3d] pyrimidine]
Ki [3]: 802 nM
Ki [1]: 206 nM
Ki [4]: 270 nM
